Numbered stars: 1 amine (or outer) side, 2 acyl side, 3 side chain; on linkers, the order of the positions; unused ones are H or OH. Bridge positions count the residues as written; N and C are the ends. Square brackets hold non-standard residues; d marks the D form. Peptide text beside a SMILES is read from it. * marks the point of attachment. ξ: configuration not given here. TBMB(SCH2CH2NH-DOTA) = O=C(O)CN1CCN(CC(=O)O)CCN(CC(=O)NCCSCc2cc(C[*:1])cc(C[*:2])c2)CCN(CC(=O)O)CC1; NH(CH2)2O(CH2)2NHDOTA = O=C(O)CN1CCN(CC(=O)O)CCN(CC(=O)NCCOCCN*)CCN(CC(=O)O)CC1; X5 = CCCCCC(=O)N[C@@H](CSCc1cccc(C[*:2])c1)C(=O)N1CCC[C@@H](NC(=O)[*:1])C1; X3 = O=C(O)CN1CCN(CC(=O)O)CCN(CC(=O)NCCOCCOCCOCCN*)CCN(CC(=O)O)CC1; DOTA = O=C(O)CN1CCN(CC(=O)O)CCN(CC(=O)*)CCN(CC(=O)O)CC1; Azetidine3carboxylic = O=C(C1CN([*:1])C1)[*:2]; γGlu = O=C(O)[C@H](CCC(=O)[*:2])N[*:1]; βAsp = O=C(O)[C@H](CC(=O)[*:2])N[*:1]; mXylylene = c1cc(C[*:1])cc(C[*:2])c1; ξγGlu = O=C(O)C(CCC(=O)[*:2])N[*:1]; Ethylenediamine = C(CN[*:2])N[*:1]; Cha = N[C@@H](CC1CCCCC1)C(=O)O; Decanoyl = CCCCCCCCCC(=O)*; Octanoyl = CCCCCCCC(=O)*; Hexanoyl = CCCCCC(=O)*; ξP = O=C(O)C1CCCN1; ξC = NC(CS)C(=O)O
Each compound was assayed against T1, FAP protein (Homo sapiens, UniProt Q12884) (assay: Biacore test of compound affinity to FAP protein). Conditions: Biacore 8K, SA chip, 15° C., 1:1 binding model.
T1 construct: purchased Sinobiological
T1 sequence (Q12884 1-760): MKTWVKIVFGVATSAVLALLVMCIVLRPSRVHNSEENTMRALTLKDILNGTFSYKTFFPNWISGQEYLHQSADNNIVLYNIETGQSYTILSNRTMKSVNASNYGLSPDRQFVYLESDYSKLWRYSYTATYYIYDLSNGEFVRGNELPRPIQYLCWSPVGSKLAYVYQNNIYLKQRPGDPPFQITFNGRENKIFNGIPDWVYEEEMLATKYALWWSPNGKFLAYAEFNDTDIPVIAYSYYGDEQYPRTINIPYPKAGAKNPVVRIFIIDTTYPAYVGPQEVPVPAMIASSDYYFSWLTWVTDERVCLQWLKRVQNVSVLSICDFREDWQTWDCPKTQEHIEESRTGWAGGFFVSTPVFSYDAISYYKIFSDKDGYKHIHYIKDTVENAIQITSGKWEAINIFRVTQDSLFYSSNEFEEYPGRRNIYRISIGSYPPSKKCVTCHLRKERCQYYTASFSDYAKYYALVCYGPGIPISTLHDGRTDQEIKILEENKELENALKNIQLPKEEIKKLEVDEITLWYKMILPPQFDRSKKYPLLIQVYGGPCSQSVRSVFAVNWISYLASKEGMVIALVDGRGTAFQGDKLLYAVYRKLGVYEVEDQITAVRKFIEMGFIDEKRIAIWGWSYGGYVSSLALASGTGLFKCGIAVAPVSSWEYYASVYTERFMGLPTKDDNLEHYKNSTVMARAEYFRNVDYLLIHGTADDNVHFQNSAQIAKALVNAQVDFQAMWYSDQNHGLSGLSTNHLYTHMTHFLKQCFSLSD
Protocol: The Biacore 8K (Cytiva) instrument was used to detect ligand binding of the FAP protein (Sinobiological). FAP protein was captured on the SA chip. […] The sensor surface was conditioned by injecting 1M NaCl three consecutive times in 50 mM NaOH. After each ligand injection, additional cleaning was performed using isopropanol in 1M NaCl and 50 mM NaOH (flow path 1 and 2, flow rate of 10 μL/min, injection time of 60 s). […] The analyte was run under the following conditions: analysis temperature of 15° C., analysis step=all set to LMW kinetics; cycle type=single cycle (contact time of 90 s, dissociation time of 1800 s, flow rate of 30 μL/min, flow channels 1 and 2); channel detection=2-1. Data was evaluated using the Biacore Insight Evaluation Software, and the data were fitted to a 1:1 binding model. The Biacore results are shown in Table 2 below: pKD=−Log KD, where KD is the binding affinity of the compound to the FAP protein as measured by Biacore.

SMILES | pKD (FAP)
CCCCCC(=O)N[C@H]1CSCc2cccc(c2)CSC[C@@H](C(=O)N[C@@H](CCC(=O)NCCNC(=O)CN2CCN(CC(=O)O)CCN(CC(=O)O)CCN(CC(=O)O)CC2)C(=O)O)NC(=O)[C@H](Cc2ccccc2)NC(=O)[C@H](CCC(N)=O)NC(=O)[C@H]([C@@H](C)O)NC(=O)[C@@H]2CCCN2C(=O)C2CN(C2)C1=O (single isomer, unassigned) [^175Lu-JHDC23] | B (B: 7<pKD<8)

Same assay, conditions: Biacore 8K, SA chip, 15° C., 1:1 binding model; read-out: pKD (FAP) (converted)

SMILES | Kd
CCCCCC(=O)N[C@H]1CSCc2cccc(c2)CSCC(C(=O)N[C@@H](CCC(=O)NCCOCCNC(=O)CN2CCN(CC(=O)O)CCN(CC(=O)O)CCN(CC(=O)O)CC2)C(=O)O)NC(=O)[C@H](CC2CCCCC2)NC(=O)[C@H](CCC(N)=O)NC(=O)[C@H]([C@@H](C)O)NC(=O)C2CCCN2C(=O)C2CN(C2)C1=O (stereo partly drawn) [JHDC05, Hex[Cys(3MeBn)-hhy39-Pro-Thr-Gln-hhy34-Cys]-Glu-(DAPEG2-DOTA)-OH] (Hexanoyl-C[Azetidine3carboxylic][ξP]TQ[Cha][ξC]E(NH(CH2)2O(CH2)2NHDOTA)-OH; linker 1-7 via mXylylene) | < 10 nM
CCCCCC(=O)N[C@H]1CSCc2cccc(c2)CSCC(C(=O)N[C@@H](CCC(=O)NCCOCCNC(=O)CN2CCN(CC(=O)O)CCN(CC(=O)O)CCN(CC(=O)O)CC2)C(=O)O)NC(=O)[C@H](Cc2ccccc2)NC(=O)[C@H](CCC(N)=O)NC(=O)[C@H]([C@@H](C)O)NC(=O)C2CCCN2C(=O)C2CN(C2)C1=O (stereo partly drawn) [JHDC06, Hex[Cys(3MeBn)-hhy39-Pro-Thr-Gln-Phe-Cys]-Glu-(DAPEG2-DOTA)-OH] (Hexanoyl-C[Azetidine3carboxylic][ξP]TQF[ξC]E(NH(CH2)2O(CH2)2NHDOTA)-OH; linker 1-7 via mXylylene) | < 10 nM
CCCCCC(=O)N[C@H]1CSCc2cccc(c2)CSCC(C(=O)N[C@@H](CCCCNC(=O)CN2CCN(CC(=O)O)CCN(CC(=O)O)CCN(CC(=O)O)CC2)C(=O)O)NC(=O)[C@H](Cc2ccccc2)NC(=O)[C@H](CCC(N)=O)NC(=O)[C@H]([C@@H](C)O)NC(=O)C2CCCN2C(=O)N[C@@H]2CCCN(C2)C1=O (stereo partly drawn) [JHDC07, Hex[Cys(3MeBn)-hhy44(NH)—CO-Pro-Thr-Gln-Phe-Cys]-Lys-(DOTA)-OH] ([ξP]TQF[ξC]K(DOTA)-OH; linker N-5 via X5) | 10 to 100 nM
CCCCCC(=O)N[C@H]1CSCc2cccc(c2)CSCC(C(=O)N[C@@H](CCC(=O)NCCOCCNC(=O)CN2CCN(CC(=O)O)CCN(CC(=O)O)CCN(CC(=O)O)CC2)C(=O)O)NC(=O)[C@H](CC2CCCCC2)NC(=O)CNC(=O)[C@H](CCC(N)=O)NC(=O)[C@H]([C@@H](C)O)NC(=O)C2CCCN2C(=O)C2CN(C2)C1=O (stereo partly drawn) [JHDC09, Hex[Cys(3MeBn)-hhy39-Pro-Thr-Gln-Gly-hhy34-Cys]-Glu-(DAPEG2-DOTA)-OH] (Hexanoyl-C[Azetidine3carboxylic][ξP]TQG[Cha][ξC]E(NH(CH2)2O(CH2)2NHDOTA)-OH; linker 1-8 via mXylylene) | 10 to 100 nM
CCCCCC(=O)N[C@H]1CSCc2cccc(c2)CSC[C@@H](C(=O)NCCOCCNC(=O)CN2CCN(CC(=O)O)CCN(CC(=O)O)CCN(CC(=O)O)CC2)NC(=O)[C@H](Cc2ccccc2)NC(=O)[C@H](CCC(N)=O)NC(=O)[C@H]([C@@H](C)O)NC(=O)[C@@H]2CCCN2C(=O)C2CN(C2)C1=O [JHDC10, Hex[Cys(3MeBn)-hhy39-Pro-Thr-Gln-Phe-Cys]-DAPEG2-DOTA] (Hexanoyl-C[Azetidine3carboxylic]PTQFC-{NH(CH2)2O(CH2)2NHDOTA}; linker 1-7 via mXylylene) | 10 to 100 nM
CCCCCC(=O)N[C@H]1CCCCn2cc(nn2)CSC[C@@H](C(=O)N[C@@H](CCCCNC(=O)COCCNC(=O)CN2CCN(CC(=O)O)CCN(CC(=O)O)CCN(CC(=O)O)CC2)C(=O)O)NC(=O)[C@H](Cc2ccccc2)NC(=O)[C@H](CCC(N)=O)NC(=O)[C@H]([C@@H](C)O)NC(=O)[C@@H]2CCCN2C(=O)C2CN(C2)C1=O [JHDC12, Hex[2AHA(Triazole)-hhy39-Pro-Thr-Gln-Phe-CSMC]-Lys-(AEAA-DOTA)-OH] | 10 to 100 nM
CCCCCC(=O)N[C@H]1CSCc2cccc(c2)CSCC(C(=O)N[C@@H](CCC(=O)NCCOCCOCCOCCNC(=O)CN2CCN(CC(=O)O)CCN(CC(=O)O)CCN(CC(=O)O)CC2)C(=O)O)NC(=O)[C@H](CC2CCCCC2)NC(=O)[C@H](CCC(N)=O)NC(=O)[C@H]([C@@H](C)O)NC(=O)C2CCCN2C(=O)C2CN(C2)C1=O (stereo partly drawn) [JHDC16, Hex[Cys(3MeBn)-hhy39-Pro-Thr-Gln-hhy34-Cys]-Glu-(DAPEG4-DOTA)-OH] (Hexanoyl-C[Azetidine3carboxylic][ξP]TQ[Cha][ξC]E(X3)-OH; linker 1-7 via mXylylene) | 10 to 100 nM
CCCCCC(=O)N[C@H]1CSCc2cccc(c2)CSCC(C(=O)N[C@@H](CCC(=O)NCCOCCNC(=O)CN2CCN(CC(=O)O)CCN(CC(=O)O)CCN(CC(=O)O)CC2)C(=O)O)NC(=O)CNC(=O)[C@H](CC2CCCCC2)NC(=O)[C@H](CCC(N)=O)NC(=O)[C@H]([C@@H](C)O)NC(=O)C2CCCN2C(=O)C2CN(C2)C1=O (stereo partly drawn) [JHDC17, Hex[Cys(3MeBn)-hhy39-Pro-Thr-Gln-hhy34-Gly-Cys]-Glu-(DAPEG2-DOTA)-OH] (Hexanoyl-C[Azetidine3carboxylic][ξP]TQ[Cha]G[ξC]E(NH(CH2)2O(CH2)2NHDOTA)-OH; linker 1-8 via mXylylene) | 10 to 100 nM
CCCCCCCCCC(=O)N[C@H]1CSCc2cccc(c2)CSC[C@@H](C(=O)N[C@@H](CCC(=O)N[C@@H](CCCNC(=N)N)C(=O)NCC(=O)N[C@@H](CC(=O)NCCNC(=O)CN2CCN(CC(=O)O)CCN(CC(=O)O)CCN(CC(=O)O)CC2)C(=O)O)C(=O)O)NC(=O)[C@H](Cc2ccccc2)NC(=O)[C@H](CCC(N)=O)NC(=O)[C@H]([C@@H](C)O)NC(=O)[C@@H]2CCCN2C(=O)C2CN(C2)C1=O [JHDC18, Dec[Cys(3MeBn)-hhy39-Pro-Thr-Gln-Phe-Cys]-Glu-(Arg-Gly-Asp(EDA-DOTA))-OH] (Decanoyl-C[Azetidine3carboxylic]PTQFC[γGlu]RG[βAsp]-{Ethylenediamine-DOTA}; linker 1-7 via mXylylene) | 10 to 100 nM
CCCCCCCCCC(=O)N[C@H]1CSCc2cccc(c2)CSC[C@@H](C(=O)N[C@@H](CCC(=O)N[C@@H](CCCNC(=N)N)C(=O)NCC(=O)N[C@@H](CC(=O)NCCNC(=O)CN2CCN(CC(=O)O)CCN(CC(=O)O)CCN(CC(=O)O)CC2)C(=O)O)C(=O)O)NC(=O)[C@H](CC2CCCCC2)NC(=O)[C@H](CCC(N)=O)NC(=O)[C@H]([C@@H](C)O)NC(=O)[C@@H]2CCCN2C(=O)C2CN(C2)C1=O [JHDC19, Dec[Cys(3MeBn)-hhy39-Pro-Thr-Gln-hhy34-Cys]-Glu-(Arg-Gly-Asp(EDA-DOTA))-OH] (Decanoyl-C[Azetidine3carboxylic]PTQ[Cha]C[γGlu]RG[βAsp]-{Ethylenediamine-DOTA}; linker 1-7 via mXylylene) | 10 to 100 nM
CCCCCCCC(=O)N[C@H]1CSCc2cc(CSCCNC(=O)CN3CCN(CC(=O)O)CCN(CC(=O)O)CCN(CC(=O)O)CC3)cc(c2)CSC[C@@H](C(=O)NC(CCC(=O)N[C@@H](CCCNC(=N)N)C(=O)NCC(=O)N[C@@H](CC(N)=O)C(=O)O)C(=O)O)NC(=O)[C@H](CC2CCCCC2)NC(=O)[C@H](CCC(N)=O)NC(=O)[C@H]([C@@H](C)O)NC(=O)C2CCCN2C(=O)C2CN(C2)C1=O (stereo partly drawn) [JHDC21, Oct[Cys(tMeBn-DOTA-AET)-hhy39-Pro-Thr-Gln-hhy34-Cys]-Glu-(Arg-Gly-Asp(NH2))-OH] (Octanoyl-C[Azetidine3carboxylic][ξP]TQ[Cha]C[ξγGlu]RGN-OH; linker 1-7 via TBMB(SCH2CH2NH-DOTA)) | 10 to 100 nM

Reference: patent US20260274894A1, “CYCLIC POLYPEPTIDE COMPOUND AND USE THEREOF” (BIVISION PHARMACEUTICALS, INC., priority 2023, published 2026)
